Converted amounts (≈) assume the structure as drawn. Square brackets hold non-standard residues; d marks the D form. Peptide text beside a SMILES is read from it. * marks the point of attachment. ξ: configuration not given here. boroAla((+)-pinanediol) = C[C@H](N*)B1O[C@@H]2C[C@@H]3C[C@@H](C3(C)C)[C@]2(C)O1; Biphenylcarbonyl(4'-Bu) = CCCCc1ccc(-c2ccc(C(=O)*)cc2)cc1; X11 = CC[C@H](N*)B1OC2C[C@@H]3C[C@@H](C3(C)C)[C@]2(C)O1; X1 = C[C@H](N*)B1OC2C[C@@H]3C[C@@H](C3(C)C)[C@]2(C)O1; Pro(4S-NH2) = N[C@@H]1CN[C@H](C(=O)O)C1; X4 = CCCCc1ccc(-c2c[nH]c(C(=O)*)c2)cc1; Dopa = N[C@@H](Cc1ccc(O)c(O)c1)C(=O)O; Thr(3ξ) = CC(O)[C@H](N)C(=O)O; X3 = CCCCCCCCCCCCS(=O)(=O)*; X6 = C[C@@H](N*)C(=O)C(N)=O; Decanoyl = CCCCCCCCCC(=O)*; boroAla = C[C@H](N*)B(O)O; Orn = NCCC[C@H](N)C(=O)O; Dab = NCC[C@H](N)C(=O)O; Abu = CC[C@H](N)C(=O)O; Dap = NC[C@H](N)C(=O)O; βAla = NCCC(=O)O
What was measured:
[1] = test system: Escherichia coli strain MC4100 IMP-4213, which harbors an LptD mutation; details: Method B; E. coli MC4100 IMP-4213 (LptD mutation); 35° C., 22 hours
How it was run: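 Two-fold serial dilutions of compound inoculated at final OD600 0.0005, incubated static at 35 °C for 22 h, and growth read visually.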

[2] = test system: methicillin resistant Staphylococcus aureus (MRSA) strain USA300 (NRS384); details: Method B, 35° C., 22 hours
S. aureus SPase = S. aureus SPase (Staphylococcus aureus, UniProt P0A070); assay: biochemical
E. coli SPase = E. coli SPase (Escherichia coli, UniProt P00803); assay: Biochemical SPase activity assay (fluorogenic peptide substrate), E. coli enzyme

Structure (SMILES)	MIC (μg/mL) E. coli [1] [µg/mL]	MIC (μg/mL) S. aureus [2] [µg/mL]	IC50 (S. aureus SPase) [µM]	IC50 (E. coli SPase) [µM]
CCCCc1ccc(-c2ccc(C(=O)N[C@@H](CCN)C(=O)N[C@@H](CCN)C(=O)N[C@@H](C)C(=O)N[C@@H](CO)C(=O)N[C@@H](C)B3O[C@@H]4C[C@@H]5C[C@@H](C5(C)C)[C@]4(C)O3)cc2)cc1 [Compound 185] ({Biphenylcarbonyl(4'-Bu)}-[Dab][Dab]AS-{boroAla((+)-pinanediol)})	0.71 (≈ 0.868 µM)	4 (≈ 4.89 µM)	0.58	0.041
CCCCc1ccc(-c2ccc(C(=O)NCCC(=O)N[C@@H](CCCCN)C(=O)N3CCC[C@H]3C(=O)N[C@@H](C)C(=O)N[C@@H](CC(N)=O)C(=O)N[C@@H](C)B3OC4C[C@@H]5C[C@@H](C5(C)C)[C@]4(C)O3)cc2)cc1 (stereo partly shown) [Compound 208] ({Biphenylcarbonyl(4'-Bu)-βAla}-KPAN-X1)	4 (≈ 4.25 µM)	0.31 (≈ 0.329 µM)	0.0057	0.02
CCCCc1ccc(-c2ccc(C(=O)N[C@@H](CCCN)C(=O)N[C@H](C(=O)N[C@@H](CC)C(=O)N[C@@H](CCCCN)C(=O)N[C@@H](C)B3OC4C[C@@H]5C[C@@H](C5(C)C)[C@]4(C)O3)C(C)O)cc2)cc1 (stereo partly shown) [Compound 150] ({Biphenylcarbonyl(4'-Bu)}-[Orn][Thr(3ξ)][Abu]K-X1)	0.5 (≈ 0.563 µM)	0.3 (≈ 0.338 µM)	0.27	0.006
CCCCc1ccc(-c2ccc(C(=O)N[C@@H](CCN)C(=O)N[C@H](C(=O)N[C@@H](C)C(=O)N[C@@H](CCCCN)C(=O)N[C@@H](C)B3OC4C[C@@H]5C[C@@H](C5(C)C)[C@]4(C)O3)[C@@H](C)O)c(C)c2)cc1 (stereo partly shown) [Compound 241]	0.18 (≈ 0.206 µM)	0.25 (≈ 0.286 µM)	0.042	0.0021
CCCCCCCCCC(=O)NCCC(=O)N[C@@H](CCCCN)C(=O)N[C@H](C(=O)N[C@@H](C)C(=O)N[C@@H](CC(N)=O)C(=O)N[C@@H](C)B1OC2C[C@@H]3C[C@@H](C3(C)C)[C@]2(C)O1)[C@@H](C)O (stereo partly shown) [Compound 199] ({Decanoyl-βAla}-KTAN-X1)	>64	7 (≈ 8.11 µM)	0.0014	0.0045
CCCCc1ccc(-c2ccc(C(=O)N[C@@H](CCC(=O)O)C(=O)N[C@H](C(=O)N[C@@H](C)C(=O)N[C@@H](CCCCN)C(=O)N[C@@H](C)B(O)O)[C@@H](C)O)cc2)cc1 [Compound 163] ({Biphenylcarbonyl(4'-Bu)}-ETAK-boroAla)	>64	4 (≈ 5.3 µM)	0.31	0.24
CCCCc1ccc(-c2ccc(C(=O)NCCC(=O)N[C@@H](CCCCN)C(=O)N[C@H](C(=O)N[C@@H](C)C(=O)N[C@@H](CC(N)=O)C(=O)N[C@@H](C)B(O)O)[C@@H](C)O)cc2)cc1 [Compound 204] ({Biphenylcarbonyl(4'-Bu)-βAla}-KTAN-boroAla)	4.6 (≈ 5.67 µM)	0.45 (≈ 0.555 µM)	0.013	0.033
CCCCc1ccc(-c2ccc(C(=O)N[C@@H](CN)C(=O)N[C@@H](CCC(=O)N[C@H](CC(=O)O)C(=O)O)C(=O)N[C@@H](C)C(=O)N[C@@H](CCCCN)C(=O)N[C@@H](C)B3OC4C[C@@H]5C[C@@H](C5(C)C)[C@]4(C)O3)cc2)cc1 (stereo partly shown) [Compound 259] ({Biphenylcarbonyl(4'-Bu)}-[Dap]E(dD)AK-X1)	4 (≈ 4.04 µM)	11 (≈ 11.1 µM)	0.032	0.0026
CCCCc1ccc(-c2ccc(C(=O)N[C@@H](Cc3c[nH]cn3)C(=O)N[C@H](C(=O)N[C@@H](C)C(=O)N[C@@H](CCCCN)C(=O)N[C@@H](C)B3OC4C[C@@H]5C[C@@H](C5(C)C)[C@]4(C)O3)[C@@H](C)O)cc2)cc1 (stereo partly shown) [Compound 143] ({Biphenylcarbonyl(4'-Bu)}-HTAK-X1)	5.7 (≈ 6.35 µM)	0.35 (≈ 0.39 µM)	0.18	0.25
CCCCc1ccc(-c2c[nH]c(C(=O)N[C@@H](CCN)C(=O)N[C@H](C(=O)N[C@@H](C)C(=O)N[C@@H](CCCCN)C(=O)N[C@@H](C)B3O[C@@H]4C[C@@H]5C[C@@H](C5(C)C)[C@]4(C)O3)[C@@H](C)O)c2)cc1 [Compound 247] (X4-[Dab]TAK-{boroAla((+)-pinanediol)})	0.5 (≈ 0.589 µM)	0.5 (≈ 0.589 µM)	0.11	0.017
CCCCc1ccc(-c2ccc(C(=O)N3C[C@@H](N)C[C@H]3C(=O)N3CCC[C@H]3C(=O)N[C@@H](C)C(=O)N[C@@H](CCCCN)C(=O)N[C@@H](C)B3OC4C[C@@H]5C[C@@H](C5(C)C)[C@]4(C)O3)cc2)cc1 (stereo partly drawn) [Compound 181] ({Biphenylcarbonyl(4'-Bu)}-[Pro(4S-NH2)]PAK-X1)	0.5 (≈ 0.576 µM)	0.4 (≈ 0.461 µM)	0.018	0.0054
CCCCc1ccc(-c2ccc(C(=O)NCCC(=O)N3C[C@@H](N)C[C@H]3C(=O)N[C@H](C(=O)N[C@@H](C)C(=O)N[C@@H](CC(N)=O)C(=O)N[C@@H](C)B3OC4C[C@@H]5C[C@@H](C5(C)C)[C@]4(C)O3)[C@@H](C)O)cc2)cc1 (stereo partly drawn) [Compound 213] ({Biphenylcarbonyl(4'-Bu)-βAla}-[Pro(4S-NH2)]TAN-X1)	1.3 (≈ 1.4 µM)	0.22 (≈ 0.237 µM)	0.0077	0.0068
CCCCCCCCCCCCS(=O)(=O)N[C@@H](CCCCN)C(=O)N[C@H](C(=O)N[C@@H](C)C(=O)N[C@@H](CCCCN)C(=O)N[C@@H](C)B(O)O)C(C)O (stereo partly shown) [Compound 265] (X3-K[Thr(3ξ)]AK-boroAla)	4 (≈ 5.33 µM)	0.13 (≈ 0.173 µM)	0.017	0.12
CCCCc1ccc(-c2ccc(C(=O)NCCC(=O)N[C@@H](CCCCN)C(=O)N[C@H](C(=O)N[C@@H](C)C(=O)N[C@@H](Cc3c[nH]cn3)C(=O)N[C@@H](C)B3OC4C[C@@H]5C[C@@H](C5(C)C)[C@]4(C)O3)[C@@H](C)O)cc2)cc1 (stereo partly shown) [Compound 196] ({Biphenylcarbonyl(4'-Bu)-βAla}-KTAH-X1)	2.5 (≈ 2.58 µM)	0.66 (≈ 0.682 µM)	0.0057	0.0088
CCCCc1ccc(-c2ccc(C(=O)N[C@@H](CCCCN)C(=O)N[C@@H](CCCCN)C(=O)N[C@@H](C)C(=O)N[C@@H](CC(C)C)C(=O)N[C@H](C)C(=O)C(N)=O)cc2)cc1 [Compound 254] ({Biphenylcarbonyl(4'-Bu)}-KKAL-X6)	11 (≈ 13.9 µM)	8 (≈ 10.1 µM)	0.66	1.2
CCCCc1ccc(-c2ccc(C(=O)N[C@@H](CCCCN)C(=O)N[C@@H](Cc3c[nH]cn3)C(=O)N[C@@H](C)C(=O)N[C@@H](CC(N)=O)C(=O)N[C@@H](C)B(O)O)cc2)cc1 [Compound 136] ({Biphenylcarbonyl(4'-Bu)}-KHAN-boroAla)	1 (≈ 1.29 µM)	1.4 (≈ 1.8 µM)	0.039	0.014
CCCCc1ccc(-c2ccc(C(=O)N[C@@H](CCCCN)C(=O)N[C@H](C(=O)N[C@@H](C)C(=O)N[C@@H](CC(N)=O)C(=O)N[C@@H](C)B3O[C@@H]4C[C@@H]5C[C@@H](C5(C)C)[C@]4(C)O3)[C@@H](C)O)cc2)cc1 [Compound 129] ({Biphenylcarbonyl(4'-Bu)}-KTAN-{boroAla((+)-pinanediol)})	0.91 (≈ 1.04 µM)	0.74 (≈ 0.847 µM)	0.14	0.014
CCCCc1ccc(-c2ccc(C(=O)N[C@@H](CCN)C(=O)N[C@@H](Cc3ccc(O)c(O)c3)C(=O)N[C@@H](C)C(=O)N[C@@H](CCCCN)C(=O)N[C@@H](C)B3O[C@@H]4C[C@@H]5C[C@@H](C5(C)C)[C@]4(C)O3)cc2)cc1 [Compound 188] ({Biphenylcarbonyl(4'-Bu)}-[Dab][Dopa]AK-{boroAla((+)-pinanediol)})	8 (≈ 8.53 µM)	16 (≈ 17.1 µM)	2.9	0.12
CCCCc1ccc(-c2ccc(C(=O)N[C@@H](CCN)C(=O)N[C@@H](CCN)C(=O)N[C@@H](C)C(=O)N[C@@H](CC(C)C)C(=O)N[C@@H](C)B(O)O)cc2)cc1 [Compound 179] ({Biphenylcarbonyl(4'-Bu)}-[Dab][Dab]AL-boroAla)	0.5 (≈ 0.705 µM)	2 (≈ 2.82 µM)	0.57	0.022
CCCCc1ccc(-c2ccc(CN[C@@H](CCN)C(=O)N[C@H](C(=O)N[C@@H](C)C(=O)N[C@@H](CCCCN)C(=O)N[C@@H](C)B3OC4C[C@@H]5C[C@@H](C5(C)C)[C@]4(C)O3)[C@@H](C)O)cc2)cc1 (stereo partly shown) [Compound 266]	1 (≈ 1.18 µM)	0.5 (≈ 0.591 µM)	0.16	0.022
CCCCc1ccc(-c2ccc(C(=O)NCCC(=O)N[C@@H](CCCCN)C(=O)N[C@H](C(=O)N[C@@H](CC)C(=O)N[C@@H](CC(N)=O)C(=O)N[C@@H](CC)B3OC4C[C@@H]5C[C@@H](C5(C)C)[C@]4(C)O3)[C@@H](C)O)cc2)cc1 (stereo partly shown) [Compound 205] ({Biphenylcarbonyl(4'-Bu)-βAla}-KT[Abu]N-X11)	32 (≈ 32.9 µM)	2 (≈ 2.06 µM)	0.02	0.21
CCCCc1ccc(-c2ccc(CNCCC[C@H](N)C(=O)N[C@H](C(=O)N[C@@H](C)C(=O)N[C@@H](CCCCN)C(=O)N[C@@H](C)B3OC4C[C@@H]5C[C@@H](C5(C)C)[C@]4(C)O3)[C@@H](C)O)cc2)cc1 (stereo partly shown) [Compound 274]	16 (≈ 18.6 µM)	0.13 (≈ 0.151 µM)	0.035	1.7

From patent US9708368B2, “Linear peptide antibiotics” (priority 2012, dated 2017)
